These results are taken from patent US7501406B2, “Fluoro substituted 2-oxo-azepan derivatives” (Hoffmann-La Roche Inc., priority 2005, dated 2009).

A word on the IC50: it is the concentration that inhibits the measured activity by half.

The test addresses γ-secretase (Homo sapiens, UniProt P49768). Put plainly: in vitro assay of γ-secretase activity (HEK293 membrane fraction, recombinant APP substrate, Abeta ELISA). The test is classed as biochemical. The note with it: γ-secretase inhibition; HEK293 membrane fraction as source of γ-secretase, recombinant C-terminal 100 amino acids of human APP as substrate, Abeta detected by ELISA. An excerpt:
Description of γ-secretase Assay
The activity of test compounds can be evaluated in assays which measure the proteolytic cleavage of suitable substrates by γ-secretase activity. These can be cellular assays where e.g., a substrate of γ-secretase is fused in its cytoplasmic domain to a transcription factor. Cells are transfected with this fusion gene and a reporter gene, e.g., firefly luciferase, which expression is enhanced by the transcription factor. Cleavage of the fused substrate by γ-secretase will lead to expression of the reporter gene which can be monitored in appropriate assays. The γ-secretase activity can also be determined in cell-free in vitro assays where e.g., a cell lysate containing the γ-secretase complex is incubated with a suitable APP-derived substrate which is cleaved to the Abeta peptides. The amount of produced peptides can be determined with specific ELISA assays. Cell lines of neuronal origin secrete Abeta peptides which can be measured with the specific ELISA assay. Treatment with compounds which inhibit γ-secretase leads to a reduction of secreted Abeta thus providing a measure of inhibition.
The in vitro assay of γ-secretase activity uses a HEK293 membrane fraction as a source of γ-secretase and a recombinant APP substrate. The latter consists of the C-terminal 100 amino acids of human APP fused to a 6×Histidin tail for purification which is expressed in E. coli in a regulatable expression vector, e.g. pEt15. This recombinant protein corresponds to the truncated APP fragment which results after […] of the extracellular domain and which constitutes the γ-secretase substrate. The assay principle is described in Li Y M et al, PNAS 97(11), 6138-6143 (2000). Hek293 cells are mechanically disrupted, and the microsomal fraction is isolated by differential centrifugation. The membranes are solubilized in detergent (0.25% CHAPSO) and incubated with the APP substrate. The Abeta peptides which are produced by γ-secretase cleavage of the substrate are detected by specific ELISA assays as described (Brockhaus M et al, Neuroreport 9(7), 1481-1486 (1998).
The preferred compounds show a IC50<10 nM. In the list below are described some data to the γ-secretase inhibition: […]
Background: ELISA stands for enzyme-linked immunosorbent assay.
In the case of `COc1ccc(CN([C@@H]2CC(F)(F)CCNC2=O)S(=O)(=O)c2ccc(Cl)cc2)c(F)c1F` [Example 4, 4-Chloro-N-(2,3-difluoro-4-methoxy-benzyl)-N-((R)-5,5-difluoro-2-oxo-azepan-3-yl)-benzenesulfonamide], the IC50 worked out at 2 nM.

Take `O=C1NCCC(F)(F)C[C@H]1N(Cc1ccc(-c2ncn[nH]2)cc1F)S(=O)(=O)c1ccc(Cl)cc1` [Example 12, 4-Chloro-N-((R)-5,5-difluoro-2-oxo-azepan-3-yl)-N-[2-floro-4-(2H-[1,2,4]triazol-3-yl)-benzyl]-benzenesulfonamide]: the IC50 worked out at 6 nM.

As to `O=C(NC1CC1)c1ccc(CN([C@@H]2CCC(F)(F)CNC2=O)S(=O)(=O)c2ccc(Cl)cc2)cc1` [Example 13, 4-{[(4-Chloro-benzenesulfonyl)-((R)-6,6-difluoro-2-oxo-azepan-3-yl)-amino]-methyl}-N-cyclopropyl-benzamide], the IC50 turned out to be 297 nM.

On to `COc1ccc(CN([C@@H]2CC(F)(F)CCNC2=O)S(=O)(=O)CCC(F)(F)F)cn1` [Example 16, 3,3,3-Trifluoro-propane-1-sulfonic acid ((R)-5,5-difluoro-2-oxo-azepan-3-yl)-(6-methoxy-pyridin-3-ylmethyl)-amide], for which the IC50 stood at 150 nM.

On to `COc1ccc(CN([C@@H]2CC(F)(F)CCNC2=O)S(=O)(=O)c2ccc(Cl)s2)cn1` [Example 17, 5-Chloro-thiophene-2-sulfonic acid ((R)-5,5-difluoro-2-oxo-azepan-3-yl)-(6-methoxy-pyridin-3-ylmethyl)-amide], for which the 50% inhibitory concentration (IC50) was 110 nM.
